Source: patent publication US12398411B2, “Method for producing selenoneine” (KIKKOMAN CORPORATION, priority 2018, dated 2025)

What was measured:
[1] = known to have; no test by the applicant; cited from earlier work
[2] = test system: Aspergillus sojae NBRC4239 strain; assay: Toxicity of selenium compounds: cell proliferation with alamarBlue Cell Viability Reagent; format: cell-based; settings: conidia of Aspergillus sojae NBRC4239; 0-2 mM final concentration; 30° C. for 30 hours
Procedure: The cytotoxicity of sodium selenite was tested as follows. To quantify cell proliferation, alamarBlue Cell Viability Reagent (Thermo Fisher Scientific) was used.
The mixture composed of 2× DPY liquid medium (2 (w/v) % polypeptone, 4 (w/v) % dextrin, 1 (w/v) % yeast extract, 1 (w/v) % KH2PO4, 0.1 (w/v) % MgSO4·7H2O; pH not adjusted), 2× alamarBlue and 2×10^4 cells/ml the conidia of Aspergillus sojae NBRC4239 strain was dispensed in the volume of 100 μl into each well of a microplate. Similarly, 100 μl of an aqueous sodium selenite solution was added to each well so that the final concentration was 0 mM, 0.125 mM, 0.25 mM, 0.5 mM, 1 mM and 2 mM. The blank without the addition of the conidia and sodium selenite solution was used as a blank.
After incubating the microplate at 30° C. for 30 hours, absorbance at 570 nm was measured. A plot of the value calculated by subtracting absorbance at 600 nm of the blank from the measurement result according to the instruction manual of alamarBlue reagent is shown in FIG. 4.

SMILES	antioxidant activity relative to its thio analog, ergothioneine [1]	degree of mycelial growth observed visually [2]	growth inhibition (cytotoxicity, absorbance at 570 nm, FIG. 4) [2]
C[N+](C)(C)[C@@H](Cc1cnc([Se-])[nH]1)C(=O)O [selenoneine]	1,000 times	–	–
O=[Se](O)O [sodium selenite]	–	No difference	no growth inhibition
